We go through 12 compounds from patent US12606561B2, “Substituted pyrazolo[1,5-a][1,3,5]triazines as CDK inhibitors” (QURIENT CO., LTD., priority 2018, dated 2026).

The target of one assay is T1, CDK5/p25 (Homo sapiens, UniProt Q00535).
T1 construct: purchased Invitrogen PR8543B
Briefly: Enzymatic assay for CDK5 (LANCE Ultra kinase assay, FRET based). The class given is biochemical. The settings on record: ATP at Km. Summed up: (§1)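 TR-FRET kinase assay at ATP Km with ULight-MBP peptide (68 nM) and Eu-anti-phospho-MBP antibody; CDK2/Cyclin A at […], CDK5/p25 at […]. 8-dose 4-fold compound dilutions; 60 min kinase reaction at 23° C., EDTA stop, 60 min detection, read at 615/665 nm.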
On the technique in general: TR-FRET usually uses a lanthanide donor and a delayed reading to cut background.

The target in another assay is T2, CDK2/Cyclin A (Homo sapiens, UniProt P24941).
T2 construct: purchased Invitrogen PV6290
Nature of the assay: Enzymatic assay for CDK2 (LANCE Ultra kinase assay, FRET based). The assay is classed as biochemical. The settings on record: ATP at Km. A digest of the protocol: as §1

The test system of a further assay is H460. Briefly: Cellular H460 viability assay (CellTiter-Glo, 72 hours). The assay is classed as cell-based. The conditions noted are these: Homo sapiens, NCI-H460; H460 cells. Here is the method:
All cell lines were routinely tested for mycoplasma.
To effect of the CDK7 inhibitor to inhibit the growth of target cancer cells, viability assay were conducted a 72 hour time period. Briefly, the candidate cell line was plated in 96 well plate at the following density of cells respectively. 1×10^4 cells/well for MV4-11, 5×10^3 for H460 and OVCAR-3, and 1×10^3 for A2780. […] DMSO solvent without compound served as a control and final DMSO concentration lest than 0.1%. After 72 hours of incubation at 37° C., 5% CO2 incubator, cells were analyzed for the viability using the CellTiter-Glo Luminescent Cell Viability Assay (Promega, Cat #G7570). All viability assays were performed in duplicate and Luminescence was read using an Envision (Perkin Elmer, USA). Data was analyzed using XLfit software.
For orientation: Cellular ATP, detected with luciferase, serves as a proxy for viable cell number.

A further assay deals with T3, CDK7/Cyclin H/MNAT1 (Homo sapiens, UniProt P50613).
T3 construct: purchased Invitrogen PR6749B
Briefly: Enzymatic assay for CDK7 (LANCE Ultra kinase assay, FRET based). The assay is classed as biochemical. The settings on record: for IC50: ATP at Km. Summed up:
(§2)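 FRET read-out: Eu-labeled anti-phospho-antibody binding a phosphorylated ULight peptide. Purified CDK–cyclin complex, ATP at Km.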

In another assay the target is T4, CDK1/Cyclin B (Homo sapiens, UniProt P06493).
T4 construct: purchased Invitrogen PR4768C
Nature of the assay: Enzymatic assay for CDK1 (LANCE Ultra kinase assay, FRET based). The assay is classed as biochemical. A digest of the protocol:
as §2

[1] abbreviates: ATP at Km, read-out: CDK1 enzymatic activity IC50.

Where two headings read alike, the source gives them in different places. Where only a bound is given, the exact number is not on record here.

T4 sequence (P06493 whole entry): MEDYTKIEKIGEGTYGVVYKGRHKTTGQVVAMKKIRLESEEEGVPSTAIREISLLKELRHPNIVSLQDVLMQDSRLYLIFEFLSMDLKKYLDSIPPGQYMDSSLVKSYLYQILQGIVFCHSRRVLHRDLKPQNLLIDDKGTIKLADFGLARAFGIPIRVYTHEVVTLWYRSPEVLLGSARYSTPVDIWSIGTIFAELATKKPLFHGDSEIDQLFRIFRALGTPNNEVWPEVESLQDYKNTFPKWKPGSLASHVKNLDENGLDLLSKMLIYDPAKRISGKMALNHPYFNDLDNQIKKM
T4 sequence (P14635 whole entry partner): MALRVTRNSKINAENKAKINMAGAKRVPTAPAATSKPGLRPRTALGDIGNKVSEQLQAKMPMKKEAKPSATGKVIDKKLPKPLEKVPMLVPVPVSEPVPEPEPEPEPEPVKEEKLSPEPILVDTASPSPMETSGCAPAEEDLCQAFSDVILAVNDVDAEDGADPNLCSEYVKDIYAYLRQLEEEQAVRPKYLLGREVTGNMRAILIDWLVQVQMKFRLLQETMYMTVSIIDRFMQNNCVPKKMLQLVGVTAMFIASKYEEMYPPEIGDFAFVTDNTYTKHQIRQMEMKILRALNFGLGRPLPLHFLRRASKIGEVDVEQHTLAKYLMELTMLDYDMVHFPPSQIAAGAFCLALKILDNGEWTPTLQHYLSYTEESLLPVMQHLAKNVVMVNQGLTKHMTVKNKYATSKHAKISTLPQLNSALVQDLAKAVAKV
T3 sequence (P50613 whole entry): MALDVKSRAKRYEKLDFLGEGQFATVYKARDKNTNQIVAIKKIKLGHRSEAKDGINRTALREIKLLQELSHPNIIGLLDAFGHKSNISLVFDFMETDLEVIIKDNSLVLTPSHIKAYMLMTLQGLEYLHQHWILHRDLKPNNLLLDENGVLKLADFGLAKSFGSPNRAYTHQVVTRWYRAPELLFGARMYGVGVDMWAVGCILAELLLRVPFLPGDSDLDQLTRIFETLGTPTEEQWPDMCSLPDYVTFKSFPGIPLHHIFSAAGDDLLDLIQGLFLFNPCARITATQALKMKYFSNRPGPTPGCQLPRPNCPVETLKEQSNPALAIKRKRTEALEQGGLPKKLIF
T3 sequence (P51946 whole entry partner): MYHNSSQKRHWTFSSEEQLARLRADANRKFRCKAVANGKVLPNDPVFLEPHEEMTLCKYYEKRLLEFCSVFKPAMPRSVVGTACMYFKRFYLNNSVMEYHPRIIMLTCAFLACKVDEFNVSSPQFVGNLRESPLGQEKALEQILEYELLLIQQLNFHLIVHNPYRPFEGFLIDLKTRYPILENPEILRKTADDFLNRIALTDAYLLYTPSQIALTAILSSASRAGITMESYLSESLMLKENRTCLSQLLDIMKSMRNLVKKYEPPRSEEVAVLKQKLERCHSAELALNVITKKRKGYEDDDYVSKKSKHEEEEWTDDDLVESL
T3 sequence (P51948 whole entry partner): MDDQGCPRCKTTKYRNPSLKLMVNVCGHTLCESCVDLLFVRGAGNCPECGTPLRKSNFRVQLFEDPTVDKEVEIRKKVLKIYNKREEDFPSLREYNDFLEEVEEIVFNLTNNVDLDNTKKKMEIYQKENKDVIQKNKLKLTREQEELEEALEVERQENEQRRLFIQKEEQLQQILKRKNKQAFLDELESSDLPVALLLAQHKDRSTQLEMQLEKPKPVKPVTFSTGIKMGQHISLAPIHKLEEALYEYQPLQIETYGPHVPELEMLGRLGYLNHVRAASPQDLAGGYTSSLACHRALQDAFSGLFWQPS
T1 sequence (Q00535 whole entry): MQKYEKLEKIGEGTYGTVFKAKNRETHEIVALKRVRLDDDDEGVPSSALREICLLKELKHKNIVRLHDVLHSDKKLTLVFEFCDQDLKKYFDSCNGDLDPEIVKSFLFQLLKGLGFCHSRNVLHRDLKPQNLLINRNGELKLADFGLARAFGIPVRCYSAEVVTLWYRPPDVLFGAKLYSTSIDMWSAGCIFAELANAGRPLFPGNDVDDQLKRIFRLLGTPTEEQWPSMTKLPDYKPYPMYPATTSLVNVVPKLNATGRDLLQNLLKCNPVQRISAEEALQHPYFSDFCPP
T1 sequence (Q15078 99-307 partner limits assumed): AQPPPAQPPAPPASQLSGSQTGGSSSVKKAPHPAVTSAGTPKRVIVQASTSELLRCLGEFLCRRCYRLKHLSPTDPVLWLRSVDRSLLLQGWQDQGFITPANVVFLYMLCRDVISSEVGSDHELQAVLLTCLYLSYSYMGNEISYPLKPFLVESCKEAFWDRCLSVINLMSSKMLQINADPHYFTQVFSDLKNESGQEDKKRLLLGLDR

Turning to `CC(C)c1cnn2c(NCc3ccccc3Oc3ccc(NC(=O)/C=C/CN(C)C)cc3)nc(N3CCC(N)CC3)nc12` [Compound 10], the IC50 (in general, the midpoint of a concentration-inhibition curve) was 0.1 to 1 µM against CDK5/p25; 0.1 to 1 µM at CDK2/Cyclin A; below 1 µM with H460; below 0.1 µM against CDK7/Cyclin H/MNAT1; above 1 µM at CDK1/Cyclin B (setting [1]). For the same compound, the “CDK1/CDK7: Selectivity of CDK7 inhibition over CDK1 inhibition” value at CDK7/Cyclin H/MNAT1 was “B (B indicates 50 < [fold] ≤ 500)”. Further, the “CDK2/CDK7: Selectivity of CDK7 inhibition over CDK2 inhibition” value at CDK7/Cyclin H/MNAT1 is “B (B indicates 50 < [fold] ≤ 500)”. The “CDK5/CDK7: Selectivity of CDK7 inhibition over CDK5 inhibition” value on CDK7/Cyclin H/MNAT1 was “C (C indicates [fold] ≤ 50)”.
For the compound `CC(C)c1cnn2c(NCc3ccccc3-n3cc4cc(NC(=O)/C=C/CN(C)C)ccc4n3)nc(N3CCC(N)CC3)nc12` [Compound 24], the IC50 is 0.1 to 1 µM against CDK5/p25; 0.1 to 1 µM against CDK2/Cyclin A; 1 to 10 µM with H460; below 0.1 µM on CDK7/Cyclin H/MNAT1; 0.1 to 1 µM at CDK1/Cyclin B (setting [1]). For the same compound, on CDK7/Cyclin H/MNAT1, the “CDK1/CDK7: Selectivity of CDK7 inhibition over CDK1 inhibition” value was “B (B indicates 50 < [fold] ≤ 500)”. Further, the “CDK2/CDK7: Selectivity of CDK7 inhibition over CDK2 inhibition” value on CDK7/Cyclin H/MNAT1 is “C (C indicates [fold] ≤ 50)”. Further, the “CDK5/CDK7: Selectivity of CDK7 inhibition over CDK5 inhibition” value at CDK7/Cyclin H/MNAT1 was “C (C indicates [fold] ≤ 50)”.
On to `CC(C)c1cnn2c(NCc3ccccc3-c3cc4cc(NC(=O)/C=C/CN(C)C)ccc4[nH]3)nc(N3CCC(N)CC3)nc12` [Compound 19], for which the half-inhibitory concentration (IC50) against CDK5/p25 was below 0.1 µM; on CDK2/Cyclin A it was below 0.1 µM; in the assay with H460 it was 1 to 10 µM; against CDK7/Cyclin H/MNAT1 it was below 0.1 µM; on CDK1/Cyclin B (setting [1]), 0.1 to 1 µM. Besides, on CDK7/Cyclin H/MNAT1, the “CDK1/CDK7: Selectivity of CDK7 inhibition over CDK1 inhibition” value was “C (C indicates [fold] ≤ 50)”. On CDK7/Cyclin H/MNAT1, the “CDK2/CDK7: Selectivity of CDK7 inhibition over CDK2 inhibition” value is “C (C indicates [fold] ≤ 50)”. In addition, the “CDK5/CDK7: Selectivity of CDK7 inhibition over CDK5 inhibition” value on CDK7/Cyclin H/MNAT1 was “C (C indicates [fold] ≤ 50)”.
As for `CC(C)c1cnn2c(NCc3cccc(Oc4cccc(NC(=O)/C=C/CN(C)C)c4)c3)nc(N3CCC(N)CC3)nc12` [Compound 2], the IC50 against CDK5/p25 is 0.1 to 1 µM; against CDK2/Cyclin A, 0.1 to 1 µM; in the assay on H460, below 1 µM; against CDK7/Cyclin H/MNAT1 it was below 0.1 µM; on CDK1/Cyclin B (setting [1]) it was 0.1 to 1 µM. In addition, on CDK7/Cyclin H/MNAT1, the “CDK1/CDK7: Selectivity of CDK7 inhibition over CDK1 inhibition” value is “B (B indicates 50 < [fold] ≤ 500)”. Moreover, the “CDK2/CDK7: Selectivity of CDK7 inhibition over CDK2 inhibition” value on CDK7/Cyclin H/MNAT1 is “B (B indicates 50 < [fold] ≤ 500)”. The “CDK5/CDK7: Selectivity of CDK7 inhibition over CDK5 inhibition” value at CDK7/Cyclin H/MNAT1 was “C (C indicates [fold] ≤ 50)”.
For `CC(C)c1cnn2c(NCc3ccccc3-n3cc4cccc(NC(=O)/C=C/CN(C)C)c4n3)nc(N3CCC(N)CC3)nc12` [Compound 16], the IC50 was 0.1 to 1 µM on CDK5/p25; 0.1 to 1 µM on CDK2/Cyclin A; below 1 µM in the assay on H460; below 0.1 µM against CDK7/Cyclin H/MNAT1; above 1 µM at CDK1/Cyclin B (setting [1]). Moreover, the “CDK1/CDK7: Selectivity of CDK7 inhibition over CDK1 inhibition” value on CDK7/Cyclin H/MNAT1 was “B (B indicates 50 < [fold] ≤ 500)”. Further, the “CDK2/CDK7: Selectivity of CDK7 inhibition over CDK2 inhibition” value on CDK7/Cyclin H/MNAT1 is “B (B indicates 50 < [fold] ≤ 500)”. Further, on CDK7/Cyclin H/MNAT1, the “CDK5/CDK7: Selectivity of CDK7 inhibition over CDK5 inhibition” value was “C (C indicates [fold] ≤ 50)”.
`CC(C)c1cnn2c(NCc3cccc(OC4CCCN(C(=O)/C=C/CN(C)C)CC4)c3)nc(N3CCC(N)CC3)nc12` (racemic) [Compound 18]: the IC50 on CDK5/p25 is 0.1 to 1 µM; against CDK2/Cyclin A, 0.1 to 1 µM; in the assay with H460 it was below 1 µM; against CDK7/Cyclin H/MNAT1, below 0.1 µM; at CDK1/Cyclin B (setting [1]), above 1 µM. Moreover, the “CDK1/CDK7: Selectivity of CDK7 inhibition over CDK1 inhibition” value at CDK7/Cyclin H/MNAT1 is “A (A indicates [fold] > 500)”. On CDK7/Cyclin H/MNAT1, the “CDK2/CDK7: Selectivity of CDK7 inhibition over CDK2 inhibition” value was “B (B indicates 50 < [fold] ≤ 500)”. Also, the “CDK5/CDK7: Selectivity of CDK7 inhibition over CDK5 inhibition” value on CDK7/Cyclin H/MNAT1 is “B (B indicates 50 < [fold] ≤ 500)”.
Regarding `CC(C)c1cnn2c(NCc3cccc(NC4CCCN(C(=O)/C=C/CN(C)C)CC4)c3)nc(N3CCC(N)CC3)nc12` (racemic) [Compound 21], the IC50 on CDK5/p25 was 0.1 to 1 µM; against CDK2/Cyclin A, above 1 µM; with H460, 1 to 10 µM; at CDK7/Cyclin H/MNAT1, below 0.1 µM; on CDK1/Cyclin B (setting [1]), above 1 µM. In addition, the “CDK1/CDK7: Selectivity of CDK7 inhibition over CDK1 inhibition” value at CDK7/Cyclin H/MNAT1 was “A (A indicates [fold] > 500)”. Also, the “CDK2/CDK7: Selectivity of CDK7 inhibition over CDK2 inhibition” value at CDK7/Cyclin H/MNAT1 is “B (B indicates 50 < [fold] ≤ 500)”. Moreover, on CDK7/Cyclin H/MNAT1, the “CDK5/CDK7: Selectivity of CDK7 inhibition over CDK5 inhibition” value is “B (B indicates 50 < [fold] ≤ 500)”.
Take `C=CC(=O)Nc1cccc(Oc2cccc(CNc3nc(N4CCC(N(C)C)CC4)nc4c(C(C)C)cnn34)c2)c1` [Compound 14]: the IC50 at CDK5/p25 is 0.1 to 1 µM; at CDK2/Cyclin A, above 1 µM; with H460 it was below 1 µM; on CDK7/Cyclin H/MNAT1, below 0.1 µM; at CDK1/Cyclin B (setting [1]), above 1 µM. Besides, the “CDK1/CDK7: Selectivity of CDK7 inhibition over CDK1 inhibition” value on CDK7/Cyclin H/MNAT1 is “A (A indicates [fold] > 500)”. The “CDK2/CDK7: Selectivity of CDK7 inhibition over CDK2 inhibition” value at CDK7/Cyclin H/MNAT1 was “B (B indicates 50 < [fold] ≤ 500)”. Besides, the “CDK5/CDK7: Selectivity of CDK7 inhibition over CDK5 inhibition” value on CDK7/Cyclin H/MNAT1 is “B (B indicates 50 < [fold] ≤ 500)”.
For `CC(C)c1cnn2c(NCc3cccc(NC(=O)C4CCCN(C(=O)/C=C/CN(C)C)CC4)c3)nc(N3CCC(N)CC3)nc12` (racemic) [Compound 22], the IC50 at CDK5/p25 was 0.1 to 1 µM; on CDK2/Cyclin A, 0.1 to 1 µM; with H460 it was 1 to 10 µM; against CDK7/Cyclin H/MNAT1 it was below 0.1 µM; on CDK1/Cyclin B (setting [1]), above 1 µM. Further, at CDK7/Cyclin H/MNAT1, the “CDK1/CDK7: Selectivity of CDK7 inhibition over CDK1 inhibition” value is “A (A indicates [fold] > 500)”. Also, the “CDK2/CDK7: Selectivity of CDK7 inhibition over CDK2 inhibition” value on CDK7/Cyclin H/MNAT1 is “B (B indicates 50 < [fold] ≤ 500)”. Also, the “CDK5/CDK7: Selectivity of CDK7 inhibition over CDK5 inhibition” value at CDK7/Cyclin H/MNAT1 is “C (C indicates [fold] ≤ 50)”.
Take `CC(C)c1cnn2c(NCc3ccccc3NC(=O)c3cccc(NC(=O)/C=C/CN(C)C)c3)nc(N3CCC(N)CC3)nc12` [Compound 8]: the IC50 on CDK5/p25 was 0.1 to 1 µM; on CDK2/Cyclin A, above 1 µM; in the assay with H460, below 1 µM; on CDK7/Cyclin H/MNAT1 it was below 0.1 µM; at CDK1/Cyclin B (setting [1]), above 1 µM. Also, on CDK7/Cyclin H/MNAT1, the “CDK1/CDK7: Selectivity of CDK7 inhibition over CDK1 inhibition” value is “A (A indicates [fold] > 500)”. Moreover, the “CDK2/CDK7: Selectivity of CDK7 inhibition over CDK2 inhibition” value at CDK7/Cyclin H/MNAT1 was “B (B indicates 50 < [fold] ≤ 500)”. Moreover, the “CDK5/CDK7: Selectivity of CDK7 inhibition over CDK5 inhibition” value at CDK7/Cyclin H/MNAT1 is “B (B indicates 50 < [fold] ≤ 500)”.
For the compound `CC(C)c1cnn2c(NCc3cccc(NC(=O)c4cccc(NC(=O)/C=C/CN(C)C)c4)c3)nc(N3CCC(N)CC3)nc12` [Compound 1], the IC50 against CDK5/p25 was 0.1 to 1 µM; at CDK2/Cyclin A it was 0.1 to 1 µM; in the assay with H460 it was 1 to 10 µM; on CDK7/Cyclin H/MNAT1, below 0.1 µM; on CDK1/Cyclin B, above 1 µM. On CDK7/Cyclin H/MNAT1, the “CDK1/CDK7: Selectivity of CDK7 inhibition over CDK1 inhibition” value was “B (B indicates 50 < [fold] ≤ 500)”. Further, at CDK7/Cyclin H/MNAT1, the “CDK2/CDK7: Selectivity of CDK7 inhibition over CDK2 inhibition” value is “B (B indicates 50 < [fold] ≤ 500)”. Also, the “CDK5/CDK7: Selectivity of CDK7 inhibition over CDK5 inhibition” value on CDK7/Cyclin H/MNAT1 was “C (C indicates [fold] ≤ 50)”.
For the compound `CC(C)c1cnn2c(NCc3cccc4ccc(NC(=O)/C=C/CN(C)C)nc34)nc(N3CCC(N)CC3)nc12` [Compound 12], the IC50 on CDK5/p25 was 0.1 to 1 µM; at CDK2/Cyclin A, above 1 µM; in the assay with H460 it was below 1 µM; on CDK7/Cyclin H/MNAT1, below 0.1 µM; at CDK1/Cyclin B (setting [1]), above 1 µM. Also, the “CDK1/CDK7: Selectivity of CDK7 inhibition over CDK1 inhibition” value at CDK7/Cyclin H/MNAT1 was “A (A indicates [fold] > 500)”. The “CDK2/CDK7: Selectivity of CDK7 inhibition over CDK2 inhibition” value at CDK7/Cyclin H/MNAT1 was “B (B indicates 50 < [fold] ≤ 500)”. The “CDK5/CDK7: Selectivity of CDK7 inhibition over CDK5 inhibition” value on CDK7/Cyclin H/MNAT1 was “C (C indicates [fold] ≤ 50)”.
